Reference: patent US11415579B2, “Assay for measuring a rate of reaction between a target and a ligand candidate” (Imperial College Innovations Ltd., priority 2016, dated 2022)

What was measured:
Cdk2(S181C) (C177A) = molecular target: T1, Cdk2(S181C) (C177A) (Homo sapiens, UniProt P24941, C177A/S181C); test: Kinetic thiol consumption assay with Cdk2 mutant S181C; assay type: binding; set-up: key to Rate enhancement, Cdk2 S181C: rate constant with Cdk2 ÷ rate constant with model thiol (fold); conditions: additional mutation C177A; for Rate constant with Cdk2 S181C: Protein: Cdk2, cysteine position S181C, in h^-1
T1 construct: poly-histidine; made in house; host or cells: E. coli
Outline: (§1)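 Read-out is fluorescence at 380/470 nm, taken after 1 h at room temperature and normalized to a DMSO/thiol-only control over time. Thiol (5 μM Cdk2 mutant or model thiol) was in degassed pH 8 phosphate buffer with 2% v/v TCEP beads. Acrylamide rate constants for Cdk2 were divided by those with model thiol.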

[1] = molecular target: T2, human cyclin-dependent kinase 2 (Cdk2) (Homo sapiens, UniProt P24941); test: Kinetic thiol consumption assay with wild type Cdk2 (C177); assay type: binding; set-up: key to Rate enhancement, Cdk2 WT: k(Cdk2) divided by k(model thiol); Rate constant with Cdk2 (k(Cdk2)): unit not given here; conditions: for Rate constant with Cdk2 (k(Cdk2)): 500 μM ligand, 5 μM thiol, phosphate buffer pH 8; for Rate enhancement, Cdk2 WT: no additional mutations; for Rate constant with Cdk2 WT: Protein: Cdk2, cysteine position WT, in h^-1; for k(Cdk2)/k(Cdk2_mut) rate enhancement: model thiol Cdk2[C177A, F80C, K278C]; for k(Cdk2)/k(GSH) rate enhancement: model thiol glutathione
T2 construct: poly-histidine; made in house; host or cells: E. coli
Outline: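 Thiol 5 μM (Cdk2 or model thiol), degassed phosphate buffer pH 8, TCEP beads 2% v/v. Plates incubated 1 h RT, ex/em 380/470 nm. First-order decay fit → rate constant; ratio Cdk2/model thiol = rate enhancement.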

[2] = Kinetic thiol consumption assay with model thiol glutathione; assay type: physicochemical; set-up: Rate constant with glutathione (k(GSH)): unit not given here; conditions: for Rate constant with glutathione (k(GSH)): 500 μM ligand, 5 μM thiol, phosphate buffer pH 8; for Rate constant with Glutathione: Protein: Glutathione, cysteine position NA, in h-1
Outline: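 Rate constants for acrylamide reaction with 5 μM glutathione come from first-order exponential fits of normalized fluorescence decay (ex 380, em 470 nm). Reactions run in degassed phosphate buffer at pH 8 containing TCEP beads, room temperature.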

Cdk2(R122C) (C177A) = molecular target: T3, Cdk2(R122C) (C177A) (Homo sapiens, UniProt P24941, C177A/R122C); test: Kinetic thiol consumption assay with Cdk2 mutant R122C; assay type: binding; set-up: key to Rate enhancement, Cdk2 R122C: rate constant with Cdk2 ÷ rate constant with model thiol (fold); conditions: additional mutation C177A; for Rate constant with Cdk2 R122C: Protein: Cdk2, cysteine position R122C, in h-1
T3 construct: poly-histidine; made in house; host or cells: E. coli
Outline: as §1

Cdk2(S276C) (C177A) = molecular target: T4, Cdk2(S276C) (C177A) (Homo sapiens, UniProt P24941, C177A/S276C); test: Kinetic thiol consumption assay with Cdk2 mutant S276C; assay type: binding; set-up: key to Rate enhancement, Cdk2 S276C: rate constant with Cdk2 ÷ rate constant with model thiol (fold); conditions: additional mutation C177A; for Rate constant with Cdk2 S276C: Protein: Cdk2, cysteine position S276C, in h^-1
T4 construct: poly-histidine; made in house; host or cells: E. coli
Outline: as §1

Cdk2(N272C) (C177A) = molecular target: T5, Cdk2(N272C) (C177A) (Homo sapiens, UniProt P24941, C177A/N272C); test: Kinetic thiol consumption assay with Cdk2 mutant N272C; assay type: binding; set-up: key to Rate enhancement, Cdk2 N272: rate constant with Cdk2 ÷ rate constant with model thiol (fold); conditions: for Rate enhancement, Cdk2 N272: Cdk2 N272, additional mutation C177A; for Rate constant with Cdk2 N272C: Protein: Cdk2, cysteine position N272C, additional mutation C177A, in h^-1
T5 construct: poly-histidine; made in house; host or cells: E. coli
Outline: as §1

Cdk2(T182C) (C177A) = molecular target: T6, Cdk2(T182C) (C177A) (Homo sapiens, UniProt P24941, C177A/T182C); test: Kinetic thiol consumption assay with Cdk2 mutant T182C; assay type: binding; set-up: key to Rate enhancement, Cdk2 T182C: rate constant with Cdk2 ÷ rate constant with model thiol (fold); conditions: additional mutation C177A; for Rate constant with Cdk2 T182C: Protein: Cdk2, cysteine position T182C, in h^-1
T6 construct: poly-histidine; made in house; host or cells: E. coli
Outline: as §1

Cdk2[C177A, F80C, K278C] = molecular target: T7, Cdk2[C177A, F80C, K278C] (Homo sapiens, UniProt P24941, C177A/F80C/K278C); test: Kinetic thiol consumption assay with mutant Cdk2 as model thiol; assay type: binding; set-up: unit not given here; conditions: 500 μM ligand, 5 μM thiol, phosphate buffer pH 8
T7 construct: poly-histidine; made in house; host or cells: E. coli
Outline: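 First-order rate constants were derived by exponential-decay fitting of DMSO/thiol-normalized fluorescence (380/470 nm) over time at room temperature. Thiol was 5 μM E. coli-expressed His-tagged Cdk2 mutant C177A/F80C/K278C in degassed pH 8 phosphate buffer containing 2% v/v TCEP beads.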

Cdk2(C177A, F80C) = molecular target: T8, Cdk2(C177A, F80C) (Homo sapiens, UniProt P24941, C177A/F80C); test: Kinetic thiol consumption assay with Cdk2 mutant F80C, incl. kobs versus concentration (Kd, k2); assay type: binding; set-up: key to Rate enhancement, Cdk2 F80C: Cdk2 rate constant divided by model-thiol rate constant; conditions: additional mutation C177A; for Rate constant with Cdk2 F80C: Protein: Cdk2, cysteine position F80C, in h^-1
T8 construct: poly-histidine; made in house; host or cells: E. coli
Outline: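 His-tagged Cdk2(C177A/F80C) from E. coli or model thiol, 5 μM in degassed phosphate buffer pH 8 with TCEP beads, reacted with acrylamide ligands; fluorescence (ex/em 380/470 nm) normalized to DMSO control and fitted to first-order decay for kobs. Kd and k2 obtained from hyperbolic fit of kobs versus ligand concentration.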

Cdk2(H71C) (C177A) = molecular target: T9, Cdk2(H71C) (C177A) (Homo sapiens, UniProt P24941, C177A/H71C); test: Kinetic thiol consumption assay with Cdk2 mutant H71C; assay type: binding; set-up: key to Rate enhancement, Cdk2 H71C: rate constant with Cdk2 ÷ rate constant with model thiol (fold); conditions: additional mutation C177A; for Rate constant with Cdk2 H71C: Protein: Cdk2, cysteine position H71C, in h^-1
T9 construct: poly-histidine; made in house; host or cells: E. coli
Outline: as §1

SMILES | Rate enhancement, Cdk2 S181C (Cdk2(S181C) (C177A)) | Rate constant with Cdk2 S181C (Cdk2(S181C) (C177A)) | Rate constant with Cdk2 (k(Cdk2)) [1] | Rate enhancement, Cdk2 WT [1] | Rate constant with Cdk2 WT [1] | k(Cdk2)/k(Cdk2_mut) rate enhancement [1] | k(Cdk2)/k(GSH) rate enhancement [1] | Rate constant with glutathione (k(GSH)) [2] | Rate constant with Glutathione [2] | Rate enhancement, Cdk2 R122C (Cdk2(R122C) (C177A)) | Rate constant with Cdk2 R122C (Cdk2(R122C) (C177A)) | Rate enhancement, Cdk2 S276C (Cdk2(S276C) (C177A)) | Rate constant with Cdk2 S276C (Cdk2(S276C) (C177A)) | Rate enhancement, Cdk2 N272 (Cdk2(N272C) (C177A)) | Rate constant with Cdk2 N272C (Cdk2(N272C) (C177A)) | Rate enhancement, Cdk2 T182C (Cdk2(T182C) (C177A)) | Rate constant with Cdk2 T182C (Cdk2(T182C) (C177A)) | Rate constant with Cdk2[C177A, F80C, K278C] (k(Cdk2_mut)) (Cdk2[C177A, F80C, K278C]) | Rate enhancement, Cdk2 F80C (Cdk2(C177A, F80C)) | Rate enhancement, Cdk2 H71C (Cdk2(H71C) (C177A)) | other results
C=CC(=O)NC1c2ccccc2Oc2ccccc21 [CA-171] | 0.8523 | 0.006213 | 0.00423 | 1.547 | 0.01128 | 3.343 | 1.018 | 0.00416 | 0.00729 | 0.2126 | 0.00155 | 0.5204 | 0.003794 | 1.029 | 0.007502 | 13.51 | 0.09852 | 0.00127 | 0 | 0.4785 | Rate constant with Cdk2 H71C (Cdk2(H71C) (C177A)): 0.003488
C=CC(=O)N1C(C(=O)c2ccccc2)C1c1ccccc1 (centres unmarked) [CA-53] | 14.88 | 0.06402 | 0.00097 | 0.2251 | 0.000968 | 0.177 | 0.226 | 0.00428 | 0.004301 | 1.018 | 0.004377 | 1 | 0.004301 | 1.415 | 0.006086 | 13.66 | 0.05877 | 0.00547 | 2.22 | 1.165 | Rate constant with Cdk2 F80C (Cdk2(C177A, F80C)): 0.009547; Rate constant with Cdk2 H71C (Cdk2(H71C) (C177A)): 0.005009
C=CC(=O)N1CCN(c2ccccc2C(N)=O)CC1 [EL-1155] | 0.5376 | 0.006043 | 0.00466 | 0.4144 | 0.004658 | 1.221 | 0.5575 | 0.00836 | 0.01124 | 0.5734 | 0.006445 | 1.346 | 0.01513 | 1.099 | 0.01235 | 2.129 | 0.02393 | 0.00382 | 0.3142 | 0.4653 | Rate constant with Cdk2 F80C (Cdk2(C177A, F80C)): 0.003532; Rate constant with Cdk2 H71C (Cdk2(H71C) (C177A)): 0.00523
C=CC(=O)N1CCCCCC1c1cccs1 (centres unmarked) [EL-1063] | 1.561 | 0.005297 | 0.00274 | 0.8082 | 0.002743 | 0.5955 | 0.7775 | 0.00353 | 0.003394 | 0.7319 | 0.002484 | 0.5613 | 0.001905 | 1.172 | 0.003977 | 9.081 | 0.03082 | 0.00461 | 2.756 | 1.092 | Rate constant with Cdk2 F80C (Cdk2(C177A, F80C)): 0.009353; Rate constant with Cdk2 H71C (Cdk2(H71C) (C177A)): 0.003705
C=CC(=O)N1CC(CCN2CCCC2=O)c2ccccc21 (centres unmarked) [CA-089] | 0.5754 | 0.02699 | 0.2034 | 4.336 | 0.2034 | 9.903 | 4.414 | 0.04608 | 0.04691 | 0.4622 | 0.02168 | 3.061 | 0.1436 | 4.344 | 0.2038 | 16.71 | 0.784 | 0.02054 | 1.909 | 3.475 | hit classification, Example 2 ([1]; significant rate enhancement against both model thiols (GSH and mutant Cdk2)): hits; Rate constant with Cdk2 F80C (Cdk2(C177A, F80C)): 0.08953; Rate constant with Cdk2 H71C (Cdk2(H71C) (C177A)): 0.163
